Data as given in patent US8802597B2, “Herbicidal pyrimidines” (E I du Pont de Nemours and Company, priority 2003, dated 2014).
Read-outs that look alike come from different tables or passages of the source.

Columns and labels:
Experiment in all cases: Test A pre/postemergence
Format in all cases: in vivo
[1] = system: velvetleaf (Abutilon theophrasti); details: for pest or weed control at 125 g/ha / pest or weed control at 500 g/ha: Abutilon theophrasti, 240 h, read-out: Plant response rating, Velvetleaf
Description: (§1) Seeds of barnyardgrass (Echinochloa crus-galli), crabgrass (Digitaria sanguinalis), giant foxtail (Setaria faberi), morningglory (Ipomoea spp.), redroot pigweed (Amaranthus retroflexus) and velvetleaf (Abutilon theophrasti) were planted into a blend of loam soil and sand and treated preemergence with a directed soil spray using test chemicals formulated in a non-phytotoxic solvent mixture which included a surfactant. At the same time these species were also treated with postemergence applications of test chemicals formulated in the same manner.
(§2) Plants ranged in height from 2 to 10 cm and were in the 1- to 2-leaf stage for the postemergence treatment. Treated plants and untreated controls were maintained in a greenhouse for approximately ten days, after which time all treated plants were compared to untreated controls and visually evaluated for injury. Plant response ratings, summarized in Table A, are based on a 0 to 100 scale where 0 is no effect and 100 is complete control. A dash (-) response means no test results.

[2] = system: morningglory (Ipomoea spp.); details: for pest or weed control at 125 g/ha / pest or weed control at 500 g/ha: Ipomoea, 240 h, read-out: Plant response rating, Morningglory
Description: as §1, §2

[3] = system: crabgrass (Digitaria sanguinalis); details: for pest or weed control at 125 g/ha / pest or weed control at 500 g/ha: Digitaria sanguinalis, 240 h, read-out: Plant response rating, Crabgrass
Description: as §1, §2

[4] = system: barnyardgrass (Echinochloa crus-galli); details: for pest or weed control at 125 g/ha / pest or weed control at 500 g/ha: Echinochloa crus-galli, 240 h, read-out: Plant response rating, Barnyardgrass
Description: as §1, §2

[5] = system: redroot pigweed (Amaranthus retroflexus); details: for pest or weed control at 125 g/ha / pest or weed control at 500 g/ha: Amaranthus retroflexus, 240 h, read-out: Plant response rating, Pigweed
Description: as §1, §2

[6] = system: giant foxtail (Setaria faberi); details: for pest or weed control at 125 g/ha / pest or weed control at 500 g/ha: Setaria faberi, 240 h, read-out: Plant response rating, Foxtail, Giant
Description: as §1, §2

[7] = post-emergence, Postemergence, 125 g ai/ha, 0 to 100 scale (0 no effect, 100 complete control)
[8] = post-emergence, Postemergence, 500 g ai/ha, 0 to 100 scale (0 no effect, 100 complete control)
[9] = pre-emergence, Preemergence, 125 g ai/ha, 0 to 100 scale where 0 is no effect and 100 is complete control, approximately ten days
[10] = pre-emergence, Preemergence, 500 g ai/ha, 0 to 100 scale where 0 is no effect and 100 is complete control, approximately ten days
[11] = Postemergence, 125 g ai/ha, 0 to 100 scale (0 no effect, 100 complete control)
[12] = Postemergence, 500 g ai/ha, 0 to 100 scale (0 no effect, 100 complete control)
[13] = Preemergence, 125 g ai/ha, 0 to 100 scale where 0 is no effect and 100 is complete control, approximately ten days
[14] = Preemergence, 500 g ai/ha, 0 to 100 scale where 0 is no effect and 100 is complete control, approximately ten days

CCOC(=O)c1nc(-c2ccc3ccccc3c2)nc(N)c1Cl [Compound 127]
60%: pest or weed control at 125 g/ha [1, 7]
80%: pest or weed control at 500 g/ha [1, 8]
10%: pest or weed control at 500 g/ha [5, 8]
0%: pest or weed control at 125 g/ha [1, 9] | pest or weed control at 500 g/ha [1, 10] | pest or weed control at 125 g/ha [2, 7] | pest or weed control at 500 g/ha [2, 8] | pest or weed control at 125 g/ha [2, 9] | pest or weed control at 500 g/ha [2, 10] | pest or weed control at 125 g/ha [3, 7] | pest or weed control at 500 g/ha [3, 8] | pest or weed control at 125 g/ha [3, 9] | pest or weed control at 500 g/ha [3, 10] | pest or weed control at 125 g/ha [4, 7] | pest or weed control at 500 g/ha [4, 8] | pest or weed control at 125 g/ha [4, 9] | pest or weed control at 500 g/ha [4, 10] | pest or weed control at 125 g/ha [5, 7] | pest or weed control at 125 g/ha [5, 9] | pest or weed control at 500 g/ha [5, 10] | pest or weed control at 125 g/ha [6, 7] | pest or weed control at 500 g/ha [6, 8] | pest or weed control at 125 g/ha [6, 9] | pest or weed control at 500 g/ha [6, 10]

COC(=O)c1nc(-c2ccc([S+](C)[O-])cc2)nc(N)c1Cl (stereo not drawn) [Compound 123]
0: Plant response rating, Velvetleaf [1, 11] | Plant response rating, Velvetleaf [1, 12] | Plant response rating, Velvetleaf [1, 13] | Plant response rating, Velvetleaf [1, 14] | Plant response rating, Morningglory [2, 11] | Plant response rating, Morningglory [2, 13] | Plant response rating, Morningglory [2, 14] | Plant response rating, Crabgrass [3, 11] | Plant response rating, Crabgrass [3, 12] | Plant response rating, Crabgrass [3, 13] | Plant response rating, Crabgrass [3, 14] | Plant response rating, Barnyardgrass [4, 11] | Plant response rating, Barnyardgrass [4, 13] | Plant response rating, Barnyardgrass [4, 14] | Plant response rating, Pigweed [5, 11] | Plant response rating, Pigweed [5, 12] | Plant response rating, Pigweed [5, 13] | Plant response rating, Pigweed [5, 14] | Plant response rating, Foxtail, Giant [6, 11] | Plant response rating, Foxtail, Giant [6, 13] | Plant response rating, Foxtail, Giant [6, 14]
20: Plant response rating, Morningglory [2, 12]
10: Plant response rating, Barnyardgrass [4, 12] | Plant response rating, Foxtail, Giant [6, 12]

CCOC(=O)c1nc(-c2ccc(OC(F)(F)F)cc2)nc(N)c1Cl [Compound 103]
20: Plant response rating, Pigweed [5, 12]
0: Plant response rating, Velvetleaf [1, 13] | Plant response rating, Morningglory [2, 11] | Plant response rating, Morningglory [2, 12] | Plant response rating, Morningglory [2, 13] | Plant response rating, Morningglory [2, 14] | Plant response rating, Crabgrass [3, 11] | Plant response rating, Crabgrass [3, 12] | Plant response rating, Crabgrass [3, 13] | Plant response rating, Crabgrass [3, 14] | Plant response rating, Barnyardgrass [4, 11] | Plant response rating, Barnyardgrass [4, 12] | Plant response rating, Barnyardgrass [4, 13] | Plant response rating, Barnyardgrass [4, 14] | Plant response rating, Pigweed [5, 11] | Plant response rating, Pigweed [5, 13] | Plant response rating, Foxtail, Giant [6, 11] | Plant response rating, Foxtail, Giant [6, 12] | Plant response rating, Foxtail, Giant [6, 13] | Plant response rating, Foxtail, Giant [6, 14]
70: Plant response rating, Velvetleaf [1, 12]
10: Plant response rating, Velvetleaf [1, 14] | Plant response rating, Pigweed [5, 14]
45: Plant response rating, Velvetleaf [1, 11]

Nc1nc(C2CC2)nc(C(=O)OCC2COC(=O)O2)c1Cl (stereo not drawn) [Compound 149]
35: Plant response rating, Foxtail, Giant [6, 13]
20: Plant response rating, Crabgrass [3, 13]
90: Plant response rating, Barnyardgrass [4, 12] | Plant response rating, Pigweed [5, 12] | Plant response rating, Pigweed [5, 14] | Plant response rating, Foxtail, Giant [6, 14]
75: Plant response rating, Crabgrass [3, 12] | Plant response rating, Crabgrass [3, 14] | Plant response rating, Pigweed [5, 11]
25: Plant response rating, Crabgrass [3, 11]
60: Plant response rating, Foxtail, Giant [6, 11]
100: Plant response rating, Velvetleaf [1, 12] | Plant response rating, Morningglory [2, 14]
65: Plant response rating, Barnyardgrass [4, 11]
85: Plant response rating, Velvetleaf [1, 11] | Plant response rating, Velvetleaf [1, 14] | Plant response rating, Morningglory [2, 13] | Plant response rating, Barnyardgrass [4, 14]
95: Plant response rating, Morningglory [2, 12]
70: Plant response rating, Velvetleaf [1, 13] | Plant response rating, Barnyardgrass [4, 13] | Plant response rating, Pigweed [5, 13]
80: Plant response rating, Morningglory [2, 11] | Plant response rating, Foxtail, Giant [6, 12]

CCOC(=O)c1nc(-c2ccc(C(F)(F)F)cc2)nc(N)c1Cl [Compound 104]
15: Plant response rating, Crabgrass [3, 11]
40: Plant response rating, Morningglory [2, 12]
0: Plant response rating, Velvetleaf [1, 13] | Plant response rating, Morningglory [2, 13] | Plant response rating, Morningglory [2, 14] | Plant response rating, Crabgrass [3, 13] | Plant response rating, Barnyardgrass [4, 11] | Plant response rating, Barnyardgrass [4, 13] | Plant response rating, Pigweed [5, 13] | Plant response rating, Foxtail, Giant [6, 11] | Plant response rating, Foxtail, Giant [6, 13]
5: Plant response rating, Barnyardgrass [4, 14] | Plant response rating, Foxtail, Giant [6, 12] | Plant response rating, Foxtail, Giant [6, 14]
80: Plant response rating, Velvetleaf [1, 12]
25: Plant response rating, Morningglory [2, 11]
70: Plant response rating, Velvetleaf [1, 11]
10: Plant response rating, Velvetleaf [1, 14] | Plant response rating, Crabgrass [3, 14] | Plant response rating, Barnyardgrass [4, 12] | Plant response rating, Pigweed [5, 14]
45: Plant response rating, Pigweed [5, 12]
30: Plant response rating, Crabgrass [3, 12] | Plant response rating, Pigweed [5, 11]
